Experiments:
[1] = Thorough QT (TQT) study in healthy adults; assay type: in vivo, human; conditions: for ΔΔQTcF, highest upper limit of 2-sided 90% CI: Day 1 and Day 4
Method: Pharmacokinetic analysis was performed on the plasma concentrations of each participant.

[2] = Milvexian clinical program, adverse drug reactions; assay type: in vivo, human; conditions: milvexian clinical development program
Excerpt: […]. […] […]. Milvexian in the two Phase II clinical trials (AXIOMATIC-TKR and AXIOMATIC-SSP) focused on different patient populations.

[3] = test system: participants undergoing primary unilateral elective TKR surgery; experiment: Total venous thromboembolism (VTE) in TKR patients, AXIOMATIC-TKR; assay type: in vivo, human
[4] = Milvexian pharmacokinetics in humans (healthy volunteers / terminal half-life)
Excerpt: (AXIOMATIC-TKR Phase II). […] “Half-life (t1/2),” as used herein, refers to apparent terminal elimination half-life having a mean value calculated using formula t1/2=loge2/λz, where λz is the apparent terminal elimination rate-constant estimated by linear regression using the terminal log-linear phase of the logarithmic (log) transformed concentration vs time data.

[5] = test system: participants with non-lacunar, non-cardioembolic ischemic stroke or TIA; experiment: AXIOMATIC-SSP Phase 2, safety (bleeding, adverse events)
[6] = Steady-state plasma pharmacokinetics of milvexian 100 mg BID
[7] = Bleeding in AXIOMATIC-TKR and AXIOMATIC-SSP; assay type: in vivo, human
Excerpt: […]. […] […]. […] […].

[8] = test system: intrinsic and final common pathways of the coagulation cascade (aPTT); experiment: Activated partial thromboplastin time (aPTT), AXIOMATIC-TKR Phase II; assay type: in vivo, human; conditions: 25-200 mg QD/BID
Excerpt: As used herein, the term “activated partial thromboplastin time (aPTT)” refers to a measure of the intrinsic and final common pathways of the coagulation cascade. It represents the time, in seconds, for plasma to clot after addition of phospholipid, an intrinsic pathway activator, and calcium. […] The term ‘partial’ means phospholipid is present but no tissue factor. The normal and reference ranges vary depending on reagent and instrument combinations, particularly with the phospholipid composition.
In some embodiments, aPTT is measured as follows: Plasma samples are incubated with Actin FS aPTT assay reagent containing a standard amount of phospholipid and contact activator (ellagic acid) which activates the intrinsic coagulation pathway. After incubating for 3 minutes, calcium chloride is added to initiate coagulation and formation of a fibrin clot is measured optically. The time to clot formation (measured in seconds) is reported as the Activated Partial Thromboplastin Time (aPTT).
Assessment of the dose-response for the occurrence of any bleeding was a secondary objective.
(§1) PD analyses were performed on the PD analysis set, defined as subjects who had at least one valid blood sample drawn for PD. Descriptive statistics (N, mean, SD, median, range, CV (%) and IQ range) were used to summarize PD response at each nominal sampling time point by treatment group. Changes from baseline were summarized when applicable. PD response outside of limit of quantitation were not to be imputed and were to be noted in the summary statistics.

[9] = test system: thrombin generation; experiment: Thrombin Generation Assay (TGA), AXIOMATIC-TKR Phase II; assay type: in vivo, human; conditions: 25-200 mg QD/BID
Excerpt: As used herein, “Thrombin Generation Assay (TGA)” is a global coagulation assay that evaluates the thrombogenic capacity of a plasma sample and has been proposed that it may better reflect prothrombotic or hemorrhagic states than conventional clotting assays. In the traditional TGA, coagulation of citrated plasma is initiated through the extrinsic pathway by adding tissue factor, phospholipids, and calcium. For this study, in the in-vitro thrombin generation assay (TGA) using human platelet-rich plasma, and a kaolin slurry was used instead to initiate coagulation through the contact activation pathway. Thrombin generation is continuously monitored through the product released by cleavage of a thrombin-specific fluorogenic substrate. The generated thrombogram is used to determine several relevant parameters, including endogenous thrombin potential, defined as the area under the thrombin concentration vs. time curve. […]
as §1

[10] = Milvexian plasma pharmacokinetics, AXIOMATIC-TKR Phase II
Excerpt: (AXIOMATIC-TKR Phase II). […] Assessment of the dose-response for the occurrence of any bleeding was a secondary objective.

[11] = test system: participants with non-lacunar, non-cardioembolic ischemic stroke or TIA; experiment: AXIOMATIC-SSP Phase 2, efficacy (ischemic stroke / covert brain infarction); assay type: in vivo, human
[12] = 100 mg BID on top of standard care antiplatelet therapy

COc1c(N2C[C@@H]3CCCN[C@@H]3C2)c(F)cc2c(=O)c(C(=O)O)cn(C3CC3)c12 [moxifloxacin]
assay sensitivity (positive control) ([1]; single 400 mg dose): demonstrated
participants with treatment-emergent change from baseline of QTcB>60 ms ([1]; single 400 mg dose, one participant): 1.7%

C[C@@H]1CCC[C@H](n2cnc(-c3cc(Cl)ccc3-n3cc(Cl)nn3)cc2=O)c2cc(ccn2)-c2c(cnn2C(F)F)NC1=O [Milvexian, (5R,9S)-9-(4-(5-chloro-2-(4-chloro-1H-1,2,3-triazol-1-yl)phenyl)-6-oxopyrimidin-1 (6H)-yl)-2^1-(difluoromethyl)-5-methyl-2^1H-3-aza-1 (4,2)-pyridina-2 (5,4)-pyrazolacyclonaphan-4-one]
serious bleeding assessed as adverse drug reactions [2]: gastrointestinal bleeding, procedural hemorrhage, nervous system disorder bleeding (hemorrhagic transformation of ischemic stroke and subdural hematoma) and hematuria
VTE reduction versus enoxaparin ([3]; 50 mg twice daily): superior to enoxaparin
VTE prevention versus enoxaparin 40 mg once daily ([3]; 50-200 mg twice daily): superior to enoxaparin 40 mg once daily
reduction in total VTE versus enoxaparin ([3]; each total daily dose regimen ≥100 mg): statistically significant reductions in total VTE compared to enoxaparin
median Tmax ([4]; healthy volunteers, twice daily): approximately 3 hours
terminal plasma half-life (T1/2) ([4]; human, oral): 13 to 16 h
rate of major bleeding versus placebo ([5]; 25 mg once daily and twice daily): the same as for placebo
major bleeding (BARC Type 3/5) ([5]; 50 mg twice daily and above): Moderate increases in major bleeding
renal serious and non-serious adverse events leading to discontinuation ([5]; 200 mg twice daily): higher rate
study drug discontinuations for adverse events ([5]; 200 mg twice daily): highest rate of study drug discontinuations for adverse events
ISTH major and CRNM bleeding, and all bleeding ([5]; all milvexian doses): increases in ISTH major and CRNM bleeding (mainly driven by CRNM), as well as all bleeding
intracranial haemorrhage or symptomatic haemorrhagic transformation of brain infarction (modified BARC type 3c) versus placebo ([5]; all milvexian doses): no increase
fatal bleeding (BARC type 5) ([5]; in the study): no fatal bleeding
dose-response for major bleeding ([5]; main composite safety endpoint): no significant dose-response
incidence of major bleeding ([5]; trial population): 1-2%
steady state Cmax, mean (std) ([6]; 100 mg BID as monotherapy): 1760 (566) ng/ml
steady state AUC0-24, mean (std) ([6]; 100 mg BID as monotherapy): 36200 (12900) ng*h/mL
steady state Cmax, mean (std) [6, 12]: 1670 (536) ng/mL
steady state AUC0-24, mean (std) [6, 12]: 35000 (12100) ng*h/mL
fatal bleeding ([7]; AXIOMATIC-TKR / AXIOMATIC-SSP): No fatal bleeding
symptomatic intracranial hemorrhage ([7]; AXIOMATIC-TKR / AXIOMATIC-SSP): no increases in symptomatic intracranial hemorrhage
dose-response for bleeding events ([7]; AXIOMATIC-TKR and AXIOMATIC-SSP): No dose-response relationship
aPTT dose dependence [8]: dose related increase in aPTT
ΔΔQTcF, highest upper limit of 2-sided 90% CI ([1]; 100 mg milvexian): 5.16 ms
ΔΔQTcF at milvexian Tmax, upper limit of 90% CI ([1]; 100 mg twice daily): below 10 ms
ΔΔQTcF, highest upper limit of 2-sided 90% CI ([1]; 200 mg milvexian): 4.57 ms
ΔΔQTcF at milvexian Tmax, upper limit of 90% CI ([1]; 200 mg twice daily): below 10 ms
safety and tolerability ([1]; multiple doses of 100 and 200 mg, healthy adults): generally safe and well tolerated
QT/QTc interval prolongation ([1]; therapeutic (100 mg) and supratherapeutic (200 mg) doses): does not show evidence of QT/QTc interval prolongation of clinical or regulatory concern
lag time dose dependence [9]: dose related prolongation in the lag time
peak thrombin and area under the curve (total thrombin generation) [9]: dose related reductions in peak thrombin and area under the curve
peak thrombin generation dose dependence [9]: clear and robust dose dependent reduction in peak thrombin generation
Tmax ([10]; Day 4, 25 mg twice daily): approximately 2 hours
Tmax ([10]; Day 4, 50 mg once daily): approximately 4 hours
Tmax ([10]; human, in vivo, po, 100 mg): ~2 h
Tmax ([10]; human, in vivo, po, 200 mg): ~4 h
observed concentration, Day 4 12 hours after dosing ([10]; in vivo): higher
observed concentration, Day 7 12 hours after dosing ([10]; in vivo): lower
time to steady state of mean trough plasma concentrations ([10]; in vivo): approximately 4 Day
dose-response for primary composite efficacy endpoint ([11]; 25 mg QD to 200 mg BID, symptomatic ischaemic stroke and incident covert brain infarction): no significant dose-response
symptomatic ischaemic strokes ([11]; all doses except 200 mg BID, pre-specified secondary analysis): numerically fewer symptomatic ischaemic strokes
incident covert brain infarcts versus placebo ([11]; milvexian doses): no effect compared to placebo
